The text below walks through data of EP2927230A1, “PENTAMETHINIUM SALTS WITH AN EXPANDED QUINOXALINE UNIT AND ITS USE IN ANTICANCER THERAPY” (University of Chemistry and Technology - Prague, priority 2014, dated 2015).

Each structure is given as a SMILES string.

Series [1] has as its system MCF-7 (breast cancer cells). The series is described as follows: Cytotoxicity (MTT) assay. The class given is cell-based. Particulars: MCF-7 cell line. The procedure: (§1) Cells were seeded into 96-well microtitre plates to the expected target cell density (2,500-30,000 cells-well^-1, according to the particular cell line). The inoculant were pre-incubated to stabilize for 24 h (at 37°C and 5 % CO^2). Fourfold dilutions (0-200 µmol·L^-1; in triplicates) of the tested compound 1 were added to the microtitre plate wells at time zero. The cells were treated with compound 1 for 72 h under standard cultivation conditions. Then, the cells were assayed using MTT for 4 h. Produced formazan, arisen by mitochondrial reduction of MTT, was dissolved in 10 % aqueous solution of sodium dodecyl sulphate (pH 5.5; 100 µL·well^-1, hole diameter is 6.54 mm) followed by overnight incubation. […] The absorption of the produced formazan was measured at 540 nm using Labsystem iEMS Reader MF. The tumor cell inhibitory concentration (IC) of compound 1 was calculated using the following equation: IC = (ODdrug / mean ODcontrol) · 100 %. The IC50 (Table 1) value (drug concentration being lethal for 50 % of the cells) was calculated from appropriate dose-response curves. (Noskova, V.; Dz ? ubak, P.; Kuzmina, G.; Ludkova, A.; Stehlik, D.; Trojanec, R.; Jano ? akova, A.; Kor ? inkova, G.; Mihal, V.; Hajduch, M. Neoplasma 2002, 49, 418-425. 38. Hajduch, M.; Mihal, V.; Minar ? ik, J.; Faber, E.; ? afarova, M.; Weigl, E.; Antalek, P. Cytotechnology 1996, 19, 243-245)

Series [2] concerns PE/CA-PJ34 (human basaloid squamous cell carcinoma). The series is described as follows: Cytotoxicity (MTT) assay. The class given is cell-based. Particulars: PE/CA-PJ34 cell line. The procedure: as §1
Series [3] concerns MiaPaCa-2 (human pancreatic carcinoma). The series is described as follows: Cytotoxicity (MTT) assay. Particulars: MiaPaCa-2 cell line. The class given is cell-based. As for the experimental part: as §1
Series [4] has as its system 4T1(mouse mammary gland carcinoma). The series is described as follows: Cytotoxicity (MTT) assay. It counts as cell-based. The note with it: 4T1 cell line. The procedure: as §1
Series [5] concerns MDA-MB-231 (human breast carcinoma). The series is described as follows: Cytotoxicity (MTT) assay. It counts as cell-based. Particulars: MDA-MB-231 cell line. As for the experimental part:
as §1

The test system of series [6] is U-2 OS (human osteosarcoma). The series is described as follows: Cytotoxicity (MTT) assay. The class given is cell-based. The note with it: U-2 OS cell line. The procedure: as §1
In series [7] the test system is LNCaP (human prostate carcinoma). The series is described as follows: Cytotoxicity (MTT) assay. It counts as cell-based. The note with it: LNCaP cell line. The procedure:
as §1

Series [8] deals with human breast carcinoma (MDA-MB-231). The series is described as follows: Effect on tumor growth in vivo (subcutaneous xenograft). More on the design: species or system Nu/nu mice. The text has this: Effect of salt 1 on tumor growth in vivo. […] The control group (◆) consisted of untreated mice with a tumor.

With `CCCN1C(=C2C=C(C=Cc3sc4ccccc4[n+]3CCC)c3nc4ccccc4nc32)Sc2ccccc21` [compound 1], the cytotoxicity entry in series [1], in series [2], in series [3], in series [4], in series [5] and in series [6] was “high cytotoxicity” in each case. The cytotoxicity entry in series [7] is “high cytotoxicity”. Further, the tumor growth entry in series [8] (Nu/nu mice with MDA-MB-231, after application, for the duration of the experiment (more than 40 days)) is reported as “practically stopped”. Besides, in series [8] (Nu/nu mice with human breast carcinoma (MDA-MB-231)), the anticancer effect entry is listed as “high anticancer effect”. Further, in series [8] (intravenously, 5 mgkg-1, twice a week, * p<0.05, ** p<0.01, n=5 mice per group), the “differences in the tumor volume of control mice versus treated mice” value was “Statistically significant differences”.
